Experimental data as given in patent US6518303B2, “2-phenylpyran-4-one derivatives” (Almirall Prodesfarma S.A., priority 1999, dated 2003).

Columns and labels:
COX-1 = target: T1, COX-1 (Homo sapiens, UniProt P23219); test: COX-1 activity in human whole blood (TXB2, calcium ionophore A23187); format: cell-based; conditions: 1 h at 37° C., TXB2 ELISA
T1 construct: Fresh blood from healthy volunteers; endogenous in cells; host or cells: fresh heparinized human whole blood stimulated with calcium ionophore A23187
Method: For the COX-1 activity determination, 500 μl aliquots of blood were incubated with either 5 μl vehicle (dimethylsulphoxide) or 5 μl of a test compound for 1 h at 37° C. […] Plasma was separated by centrifugation (10 min at 13000 rpm) and kept at −30° C. until TXB2 levels were measured using an enzyme immunoassay kit (ELISA). The effect of the compounds were evaluated by incubating each compound at five to six different concentrations with triplicate determinations. IC50 values were obtained by non-linear regression using InPlot, GraphPad software on an IBM computer.

COX-2 = target: T2, COX-2 (Homo sapiens, UniProt P35354); test: COX-2 activity in human whole blood (PGE2, LPS-induced); format: cell-based; conditions: for IC50: human whole blood, LPS 10 μg/ml 24 h at 37° C., PGE2 ELISA; for Ratio COX-1/COX-2: ratio of whole blood IC50 values
T2 construct: incubated in the presence of LPS (10 μg/ml) for 24 h at 37° C. in order to induce The COX-2 expression; endogenous in cells; host or cells: fresh heparinized human whole blood, COX-2 induced with LPS for 24 h
T2 sequence (P35354 18-604): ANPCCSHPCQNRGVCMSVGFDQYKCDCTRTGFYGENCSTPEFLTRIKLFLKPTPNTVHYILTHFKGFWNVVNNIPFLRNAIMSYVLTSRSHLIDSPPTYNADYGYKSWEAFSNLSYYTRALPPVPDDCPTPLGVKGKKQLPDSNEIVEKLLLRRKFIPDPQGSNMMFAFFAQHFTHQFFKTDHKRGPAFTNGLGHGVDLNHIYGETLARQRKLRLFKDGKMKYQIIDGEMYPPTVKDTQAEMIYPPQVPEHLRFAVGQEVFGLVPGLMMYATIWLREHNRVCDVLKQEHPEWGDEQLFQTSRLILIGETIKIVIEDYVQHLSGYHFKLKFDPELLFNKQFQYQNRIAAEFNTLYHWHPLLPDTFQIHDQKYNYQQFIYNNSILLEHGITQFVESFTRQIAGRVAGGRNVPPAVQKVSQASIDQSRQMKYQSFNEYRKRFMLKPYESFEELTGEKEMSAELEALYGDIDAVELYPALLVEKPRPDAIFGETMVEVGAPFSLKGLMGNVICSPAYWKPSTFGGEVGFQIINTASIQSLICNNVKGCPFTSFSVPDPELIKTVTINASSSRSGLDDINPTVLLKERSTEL
Method: Plasma was separated by centrifugation (10 min at 13000 rpm.) and kept at −30° C. until PGE2 levels were measured using an enzyme immunoassay kit (ELISA). The effects of inhibitors were studied by incubating each compound (5 μl aliquots) at five to six different concentrations with triplicate determinations in the presence of LPS for 24 hours. IC50 values were obtained by non-linear regression using InPlot, GraphPad software on an IBM computer.

T1 sequence (P23219 24-599): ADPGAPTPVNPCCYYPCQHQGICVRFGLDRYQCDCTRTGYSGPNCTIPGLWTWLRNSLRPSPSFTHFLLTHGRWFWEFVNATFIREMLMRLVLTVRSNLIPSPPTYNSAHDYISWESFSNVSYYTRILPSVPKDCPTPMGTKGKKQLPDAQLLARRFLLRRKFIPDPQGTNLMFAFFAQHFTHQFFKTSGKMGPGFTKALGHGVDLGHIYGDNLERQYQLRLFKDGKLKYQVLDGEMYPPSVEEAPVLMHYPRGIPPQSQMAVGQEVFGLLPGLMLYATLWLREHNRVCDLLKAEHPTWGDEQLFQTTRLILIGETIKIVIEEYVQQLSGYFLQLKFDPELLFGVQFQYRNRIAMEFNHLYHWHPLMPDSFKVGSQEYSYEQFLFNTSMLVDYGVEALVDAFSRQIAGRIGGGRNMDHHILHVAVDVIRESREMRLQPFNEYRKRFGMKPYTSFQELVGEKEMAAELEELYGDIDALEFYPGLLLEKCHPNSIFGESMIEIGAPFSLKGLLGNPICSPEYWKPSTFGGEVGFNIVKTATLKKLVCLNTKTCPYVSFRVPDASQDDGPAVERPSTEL

SMILES | melting point [°C] | IC50 (COX-1) [nM] | IC50 (COX-2) [nM] | Ratio COX-1/COX-2 (COX-2)
Cc1cc(=O)c(Oc2cc(F)ccc2F)c(-c2ccc(S(C)(=O)=O)cc2)o1 [Compound 47, 3-(2,5-difluorophenoxy)-2-(4-methanesulfonylphenyl)-6-methylpyran-4-one] | 189 | 57100 | 800 | 71
Cc1cc(=O)c(Cc2ccccc2)c(-c2ccc(S(C)(=O)=O)cc2)o1 [Compound 37] | 137 | > 100000 | 1080 | >92
Cc1cc(=O)c(-c2ccc(F)cc2F)c(-c2ccc(S(C)(=O)=O)cc2)o1 [Compound 15, 3-(2,4-difluorophenyl)-2-(4-methanesulfonylphenyl)-6-methylpyran-4-one] | 208 |  | 1100 | 90
Cc1cc(=O)c(-c2ccc(Cl)cc2Cl)c(-c2ccc(S(C)(=O)=O)cc2)o1 [Compound 21, 3-(2,4-dichlorophenyl)-2-(4-methanesulfonylphenyl)-6-methylpyran-4-one] | 203 |  |  | 
Cc1cc(=O)c(-c2ccccc2)c(-c2ccc(S(C)(=O)=O)cc2)o1 [Compound 1, 2-(4-methanesulfonylphenyl) -6-methyl-3-phenylpyran-4-one] | 185 |  |  | 
Cc1cc(=O)c(-c2ccc(F)cc2Cl)c(-c2ccc(S(C)(=O)=O)cc2)o1 [Compound 27, 3-(2-chloro-4-fluorophenyl)-2-(4-methanesulfonylphenyl)-6-methylpyran-4-one] | 113 |  |  | 
Cc1cc(=O)c(-c2cccc(Cl)c2)c(-c2ccc(S(C)(=O)=O)cc2)o1 [Compound 6, 3-(3-chlorophenyl)-2-(4-methanesulfonylphenyl)-6-methylpyran-4-one] | 131 |  |  | 
Cc1cc(=O)c(C2CCCCC2)c(-c2ccc(S(C)(=O)=O)cc2)o1 [Compound 33, 3-cyclohexyl-2-(4-methanesulfonylphenyl)-6-methylpyran-4-one] | 98 to 99 |  |  | 
Cc1cc(=O)c(-c2cccc(F)c2)c(-c2ccc(S(C)(=O)=O)cc2)o1 [Compound 3, 3-(3-fluorophenyl)-2-(4-methanesulfonylphenyl)-6-methylpyran-4-one] | 182 |  |  | 
Cc1cc(=O)c(Oc2ccc(Br)cc2)c(-c2ccc(S(C)(=O)=O)cc2)o1 [Compound 43, 3-(4-bromophenoxy)-2-(4-methanesulfonylphenyl)-6-methylpyran-4-one] | 188 | > 100000 | 800 | 125
Cc1cc(=O)c(Oc2ccccc2F)c(-c2ccc(S(C)(=O)=O)cc2)o1 [Compound 40, 3-(2-fluorophenoxy)-2-(methanesulfonylphenyl)-6-methylpyran-4-one] |  | 27000 | 140 | 193
Cc1cc(=O)c(-c2ccccc2Cl)c(-c2ccc(S(C)(=O)=O)cc2)o1 [Compound 7, 3-(2-chlorophenyl)-2-(4-methanesulfonylphenyl)-6-methylpyran-4-one] | 148 |  |  | 
CS(=O)(=O)c1ccc(-c2oc(CO)cc(=O)c2-c2ccc(Cl)cc2)cc1 [Compound 60, 3-(4-chlorophenyl)-6-hydroxymethyl-2-(4-methanesulfonylphenyl)pyran-4-one] | 120 |  |  | 
Cc1ccc(Oc2c(-c3ccc(S(C)(=O)=O)cc3)oc(C)cc2=O)cc1 [Compound 44, 2-(4-methanesulfonylphenyl)-6-methyl-3-(4-methylphenoxy) pyran-4-one] | 183 | 39000 |  | 
Cc1cc(=O)c(-c2ccccc2)c(-c2ccc(S(N)(=O)=O)cc2)o1 [Compound 54, 4-(6-methyl-4-oxo-3-phenyl-4H-pyran-2-yl)benzenesulfonamide] | 218 |  |  | 
Cc1cc(=O)c(Oc2ccc(Cl)cc2)c(-c2ccc(S(N)(=O)=O)cc2)o1 [Compound 57, 4-[3-(4-chlorophenoxy)-6-methyl-4-oxo-4H-pyran-2-yl]benzenesulfonamide] | 221 |  |  | 
Cc1cccc(-c2c(-c3ccc(S(C)(=O)=O)cc3)oc(C)cc2=O)c1 [Compound 11, 2-(4-methanesulfonylphenyl)-6-methyl-3-m-tolylpyran-4-one] | 126 |  |  | 

SMILES | melting point [°C] | IC50 (COX-1) [nM] | IC50 (COX-2) [nM] | Ratio COX-1/COX-2 (COX-2)
COCc1cc(=O)c(-c2ccc(Cl)cc2)c(-c2ccc(S(C)(=O)=O)cc2)o1 [Compound 63, 3-(4-chlorophenyl)-2-(4-methanesulfonylphenyl)-6-methoxymethylpyran-4-one] |  | 44000 | 1730 | 25
Cc1cc(=O)c(-c2c(F)cccc2F)c(-c2ccc(S(C)(=O)=O)cc2)o1 [Compound 19, 3-(2,6-difluorophenyl)-2-(4-methanesulfonylphenyl)-6-methylpyran-4-one] | 206 |  |  | 
Cc1cc(=O)c(-c2ccccc2C)c(-c2ccc(S(C)(=O)=O)cc2)o1 [Compound 12, 2-(4-methanesulfonylphenyl)-6-methyl-3-o-tolylpyran-4-one] | 91 to 93 |  |  | 
Cc1cc(=O)c(Oc2ccccc2Cl)c(-c2ccc(S(C)(=O)=O)cc2)o1 [Compound 42, 3-(2-chlorophenoxy)-2-(methanesulfonylphenyl)-6-methylpyran-4-one] |  | 41000 | 200 | 205
Cc1cc(=O)c(Oc2ccccc2)c(-c2ccc(S(C)(=O)=O)cc2)o1 [Compound 38, 2-(4-methanesulfonylphenyl)-6-methyl-3-phenoxypyran-4-one] | 169 |  |  | 
COCc1cc(=O)c(-c2ccc(Cl)cc2)c(-c2ccc(S(C)(=O)=O)cc2)o1 (hydrate or solvate) [Compound 63, 3-(4-chlorophenyl)-2-(4-methanesulfonylphenyl)-6-methoxymethylpyran-4-one] | 162 |  |  | 
Cc1cc(=O)c(-c2ccc(Cl)c(Cl)c2)c(-c2ccc(S(N)(=O)=O)cc2)o1 [Compound 56, 4-[3-(3,4-dichlorophenyl)-6-methyl-4-oxo-4H-pyran-2-yl]benzenesulfonamide] | 128 |  |  | 
Cc1cc(=O)c(-c2ccc(F)cc2)c(-c2ccc(S(N)(=O)=O)cc2)o1 [Compound 55, 4-[3 (4-fluorophenyl)-6-methyl-4-oxo-4H-pyran-2-yl]benzenesulfonamide] | 247 |  |  | 
Cc1cc(=O)c(-c2ccc(F)c(F)c2)c(-c2ccc(S(C)(=O)=O)cc2)o1 [Compound 16, 3-(3,4-difluorophenyl)-2-(4-methanesulfonylphenyl)-6-methylpyran-4-one] | 207 |  |  | 
Cc1cc(=O)c(-c2cc(F)ccc2F)c(-c2ccc(S(C)(=O)=O)cc2)o1 [Compound 18, 3-(2,5-difluorophenyl)-2-(4-methanesulfonylphenyl)-6-methylpyran-4-one] | 183 |  |  | 
Cc1cc(=O)c(-c2cc(F)cc(F)c2)c(-c2ccc(S(C)(=O)=O)cc2)o1 [Compound 17, 3-(3,5-difluorophenyl)-2-(4-methanesulfonylphenyl)-6-methylpyran-4-one] | 210 |  |  | 
CS(=O)(=O)c1ccc(-c2oc(C(=O)O)cc(=O)c2-c2ccc(Cl)cc2)cc1 [Compound 65, 5-(4-chlorophenyl)-6-(4-methanesulfonylphenyl)-4-oxo-4H-pyran-2-carboxylic acid] | 236 |  |  | 
Cc1cc(=O)c(-c2ccc(C)c(Cl)c2)c(-c2ccc(S(C)(=O)=O)cc2)o1 [Compound 29, 3-(3-chloro-4-methylphenyl)-2-(4-methanesulfonylphenyl)-6-methylpyran-4-one] | 176 |  |  | 
Cc1ccc(-c2c(-c3ccc(S(C)(=O)=O)cc3)oc(C)cc2=O)cc1 [Compound 10, 2-(4-methanesulfonylphenyl)-6-methyl-3-p-tolylpyran-4-one] | 205 |  |  | 
CS(=O)(=O)c1ccc(-c2oc(C#N)cc(=O)c2-c2ccc(F)cc2F)cc1 [Compound 59, 5-(2,4-difluorophenyl)-6-(4-methanesulfonylphenyl)-4-oxo-4H-pyran-2-carbonitrile] | 113 |  |  | 
Cc1cc(=O)c(-c2ccc(C(F)(F)F)cc2)c(-c2ccc(S(C)(=O)=O)cc2)o1 [Compound 13, 2-(4-methanesulfonylphenyl)-6-methyl-3-(4-trifluoromethylphenyl)pyran-4-one] | 172 |  |  | 
